Test results from patent US20230086703A1, “N-(4-(5-chloropyridin-3-yl)phenyl)-2-(2-(cyclopropanesulfonamido)pyrimidin-4-yl) butanamide derivatives and related compounds as human CTPS1 inhibitors for the treatment of proliferative diseases” (Step Pharma S.A.S., priority 2019, published 2023).

Molecular target: T1, human CTPS1 (Homo sapiens, UniProt P17812)
T1 construct: FLAG (with GG linker); His8 (with GG linker); purchased Proteros biostructures GmbH
T1 sequence (P17812 1-591): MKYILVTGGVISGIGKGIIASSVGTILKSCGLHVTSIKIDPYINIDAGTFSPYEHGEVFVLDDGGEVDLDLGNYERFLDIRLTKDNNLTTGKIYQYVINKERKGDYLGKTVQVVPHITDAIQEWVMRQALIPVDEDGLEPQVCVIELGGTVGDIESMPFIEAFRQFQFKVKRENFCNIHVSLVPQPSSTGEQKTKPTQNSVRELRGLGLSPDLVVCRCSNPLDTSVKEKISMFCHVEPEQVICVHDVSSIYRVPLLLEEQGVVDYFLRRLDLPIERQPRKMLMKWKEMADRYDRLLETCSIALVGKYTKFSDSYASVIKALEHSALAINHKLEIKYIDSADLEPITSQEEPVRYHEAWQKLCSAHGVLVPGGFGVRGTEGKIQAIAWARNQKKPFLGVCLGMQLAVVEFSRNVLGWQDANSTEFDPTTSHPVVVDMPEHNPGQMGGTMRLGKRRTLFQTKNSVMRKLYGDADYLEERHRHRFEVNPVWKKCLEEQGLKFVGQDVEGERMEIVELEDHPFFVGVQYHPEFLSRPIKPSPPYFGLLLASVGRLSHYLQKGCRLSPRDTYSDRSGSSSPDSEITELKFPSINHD
Experiment: RapidFire/MS-based enzyme selectivity assay (human CTPS1 versus CTPS2), CTPS1 isoform
Type: biochemical
Experimental: Human CTPS1 Versus CTPS2 Selectivity Assessment by RapidFire/MS Analysis.
The enzyme inhibitory activities against each target isoform of interest may be determined for the compounds of the invention using an optimised RapidFire high-throughput mass spectrometry (RF/MS) assay format. RF/MS assays for both human CTPS1 and CTPS2 may be performed in assay buffer consisting of 50 mM HEPES (Merck), 20 mM MgCl2, 5 mM KCl, 1 mM DTT, 0.01% Tween-20, pH to 8.0 accordingly. Human full-length active C-terminal FLAG-His-tag CTPS1 (UniProtKB—P17812, CTPS1[1-591]-[…] (CTPS1[1-591]-SEQ ID NO: 1)) may be obtained from Proteros biostructures GmbH. Human full length active C-terminal FLAG-His-Avi tagged CTPS2 (UniProtKB—Q9NRF8, CTPS2 [1-586]-[…] (CTPS2 [1-586]—SEQ ID NO: 2)) may be obtained from Harker Bio.
Human CTPS (1 or 2) protein may be prepared in 1× assay buffer to the final working protein concentration required for the reaction. A 2 uL volume per well of 2×CTPS (1 or 2) protein may be mixed with 40 nL of compound using acoustic (ECHO) delivery and incubated for 10 minutes at 25° C. Each isoform enzymatic reaction may be subsequently initiated by addition of 2 uL per well of a 2× substrate mix in assay buffer. For hCTPS1: ATP (0.3 mM), UTP (0.2 mM), GTP (0.07 mM) and L-glutamine (0.1 mM). For hCTPS2: ATP (0.1 mM), UTP (0.04 mM), GTP (0.03 mM) and L-glutamine (0.1 mM). Each mixture may be incubated for an appropriate amount of time per isoform within the determined linear phase of the reaction at 25° C. A 80 uL volume of stop solution (1% formic acid with 0.5 uM ^13C9-^15N3-CTP in H2O) may be added and the plate immediately heat-sealed and centrifuged for 10 minutes at 4,000 rpm. Following centrifugation, plates may be loaded onto the Agilent RapidFire microfluidic solid phase extraction system coupled to an API4000 triple quadrupole mass spectrometer (RF/MS) for analysis.
In all cases, the enzyme converts UTP to CTP. Highly specific and sensitive multiple reaction monitoring (MRM) MS methods may be optimised for the detection of the enzymatic reaction product, CTP, and the stable isotope labelled product standard ^13C9-^15N3-CTP. Readout for data analysis may be calculated as the ratio between the peak area of the product CTP and the internal standard ^13C9-^15N3-CTP. For data reporting, the following equation may be used:
(R=ratio/readout, P=product signal area, IS=internal standard signal area)
For each screening plate, the means of the negative (DMSO) and positive control values were used for the calculation of the respective assay window (S/B) and Z′ values. The median of the respective control values was used for calculation of percent inhibition according to the following equation:
(I=Inhibition, Rneq=median of negative control readout values, Rpos=median of positive control readout values, Rsample=sample readout value)
Percentage inhibition was then plotted against compound concentration, and the 50% inhibitory concentration (IC50) was determined from the resultant concentration-response curve.
Fold selectivity between CTPS1 and CTPS2 was subsequently calculated according to the following equation: […]

[1] = RapidFire/MS IC50 values of CTPS1 and CTPS2, Table 15
[2] = Table 16, human CTPS1 over human CTPS2, RapidFire/MS IC50 values
[3] = RapidFire/MS IC50 values of CTPS1 and CTPS2, Table 17

| Selectivity (fold selectivity between CTPS1 and CTPS2) [1] | Selectivity (fold selectivity between CTPS1 and CTPS2) [2] | also measured | Compound |
| --- | --- | --- | --- |
| ++ (>30-60 fold (++)) | – | – | CC(C)(C(=O)Nc1ccc(-c2cncc(C3CC3)n2)cn1)c1ccnc(NS(=O)(=O)C2CC2)n1 [P125, 2-(2-(cyclopropanesulfonamido)pyrimidin-4-yl)-N-(5-(6-cyclopropylpyrazin-2-yl)pyridin-2-yl)-2-methylpropanamide] |
| – | + (2-30 fold (+)) | – | CCC(NC(=O)c1ccc(-c2cncc(C(F)(F)F)n2)cc1)c1csc(NS(=O)(=O)C2CC2)n1 (centres unmarked) [R5, N-(1-(2-(cyclopropanesulfonamido)thiazol-4-yl)propyl)-4-(6-(trifluoromethyl)pyrazin-2-yl)benzamide] |
| ++ (>30-60 fold (++)) | – | – | CCOc1cncc(-c2ccc(NC(=O)C(CCOC)c3ccnc(NS(=O)(=O)C4CC4)n3)cc2)n1 (centres unmarked) [P110, 2-(2-(cyclopropanesulfonamido)pyrimidin-4-yl)-N-(4-(9-ethoxypyrazin-2-yl)phenyl)-4-methoxypbutanamide] |
| – | – | Selectivity (fold selectivity between CTPS1 and CTPS2) [3]: +++ (>60 fold (+++)) | CCOc1cncc(-c2ccc(NC(=O)C3(c4ccnc(NS(=O)(=O)C5CC5)n4)CCC(N(C)C)CC3)nc2)n1 (single isomer, unassigned) [P229, 1-(2-(cyclopropanesulfonamido)pyrimidin-4-yl)-4-(dimethylamino)-N-(5-(6-ethoxypyrazin-2-yl)pyridin-2-yl)cyclohexane-1-carboxamide] |
| +++ (>60 fold (+++)) | – | – | CCOc1cncc(-c2ccc(NC(=O)C(C)(C)c3ccnc(NS(=O)(=O)C4CC4)n3)nc2)n1 [P31, 2-(2-(cyclopropanesulfonamido)pyrimidin-4-yl)-N-(5-(6-ethoxypyrazin-2-yl)pyridin-2-yl)-2-methylpropanamide] |
| – | ++ (>30-60 fold (++)) | – | CCOc1cncc(-c2ccc(C(=O)NC(CCOC)c3csc(NS(=O)(=O)C4CC4)n3)cc2)n1 (centres unmarked) [R90, N-(1-(2-(cyclopropanesulfon-amido)thiazol-4-yl)-3-methoxypropyl)-4-(6-ethoxy-pyrazin-2-yl)benzamide] |
| ++ (>30-60 fold (++)) | – | – | CC(C)c1cncc(-c2ccc(NC(=O)C(C)(C)c3ccnc(NS(=O)(=O)C4CC4)n3)cc2)n1 [P132, 2-(2-(cyclopropanesulfonamido)pyrimidin-4-yl)-N-(4-(6-isopropylpyrazin-2-yl)phenyl)-2-methylpropanamide] |
| – | +++ (>60 fold (+++)) | – | CCOc1cncc(-c2ccc(C(=O)NC(C)(C)c3nc(NS(=O)(=O)C4CC4)sc3Cl)c(F)c2)n1 [R75, N-(2-(5-chloro-2-(cycloprop-anesulfonamido)thiazol-4-yl)propan-2-yl)-4-(6-ethoxypyrazin-2-yl)-2-fluorobenzamide] |
| +++ (>60 fold (+++)) | – | – | CCOc1cncc(-c2ccc(NC(=O)C(C)(C)c3cncc(NS(=O)(=O)C4CC4)n3)nc2)n1 [P195, 2-(6-(cyclopropanesulfonamido)pyrazin-2-yl)-N-(5-(6-ethoxypyrazin-2-yl)pyridin-2-yl)-2-methylpropanamide] |
| – | +++ (>60 fold (+++)) | – | CCOc1cncc(-c2ccc(C(=O)NC(CCOC)c3csc(NS(=O)(=O)C4CC4)n3)c(F)c2)n1 (single isomer, unassigned) [R92, N-(1-(2-(cyclopropanesulfon-amido)thiazol-4-yl)-3-methoxypropyl)-4-(6-ethoxypyrazin-2-yl)-2-fluorobenzamide] |
| – | +++ (>60 fold (+++)) | – | CCc1cncc(-c2ccc(C(=O)NC(CCOC)c3csc(NS(=O)(=O)C4CC4)n3)c(F)c2)n1 (centres unmarked) [R86, N-(1-(2-(cyclopropanesulfon-amido)thiazol-4-yl)-3-methoxypropyl)-4-(6-ethyl-pyrazin-2-yl)-2-fluorobenzamide] |
| – | – | Selectivity (fold selectivity between CTPS1 and CTPS2) [3]: +++ (>60 fold (+++)) | CCOc1cncc(-c2ccc(NC(=O)C3(c4ccnc(NS(=O)(=O)C5CC5)n4)CCC(O)CC3)nc2)n1 (single isomer, unassigned) [P228, 1-(2-(cyclopropanesulfonamido)pyrimidin-4-yl)-N-(5-(6-ethoxypyrazin-2-yl)pyridin-2-yl)-4-hydroxycyclohexanecarboxamide] |
| + (2-30 fold (+)) | – | – | CCOc1cncc(-c2cnc(NC(=O)C(CC)c3ccnc(NS(=O)(=O)C4CC4)n3)c(C)c2)n1 (centres unmarked) [P155, 2-(2-(cyclopropanesulfonamido)pyrimidin-4-yl)-N-(5-(6-ethoxypyrazin-2-yl)-3-methylpyridin-2-yl)butanamide] |
| + (2-30 fold (+)) | – | – | CC(C)(C(=O)Nc1ccc(-c2cncc(C3CC3)n2)cc1F)c1ccnc(NS(=O)(=O)C2CC2)n1 [P128, 2-(2-(cyclopropanesulfonamido)pyrimidin-4-yl)-N-(4-(9-cyclopropylpyrazin-2-yl)-2-fluorophenyl)-2-methylpropanamide] |
| – | – | Selectivity (fold selectivity between CTPS1 and CTPS2) [3]: +++ (>60 fold (+++)) | CCOc1cncc(-c2ccc(NC(=O)C3(c4ccnc(NS(=O)(=O)C5CC5)n4)CCC(=O)CC3)nc2)n1 [P226, 1-(2-(Cydopropanesulfonamido)pyrimidin-4-yl)-N-(5-(6-ethoxypyrazin-2-yl)pyridin-2-yl)-4-oxocyclohexanecarboxamide] |
| – | +++ (>60 fold (+++)) | – | CCOc1cncc(-c2ccc(C(=O)NC(C)(C)c3csc(NS(=O)(=O)C4CC4)n3)cc2)n1 [R55, N-(2-(2-(cyclopropanesulfon-amido)thiazol-4-yl)propan-2-yl)-4-(6-ethoxypyrazin-2-yl)benzamide] |
| – | ++ (>30-60 fold (++)) | – | CCOc1cncc(-c2cnc(C(=O)NC(C)(C)c3csc(NS(=O)(=O)C4CC4)n3)c(F)c2)n1 [R23, N-(2-(2-(cyclopropanesulfon-amido)thiazol-4-yl)propan-2-yl)-5-(6-ethoxypyrazin-2-yl)-3-fluoropicolinamide] |
| ++ (>30-60 fold (++)) | – | – | CC(C)Oc1cncc(-c2ccc(NC(=O)Cc3ccnc(NS(=O)(=O)C4CC4)n3)c(F)c2)n1 [P12, 2-(2-(cyclopropanesulfonamido)pyrimidin-4-yl)-N-(2-fluoro-4-(6-isopropoxypyrazin-2-yl)phenyl)acetamide] |
| – | + (2-30 fold (+)) | – | CCOc1cncc(-c2ccc(C(=O)NC(C)(C)c3csc(NS(=O)(=O)C4CC4)n3)c(C)c2)n1 [R46, N-(2-(2-(cyclopropanesulfonamido)thiazol-4-yl)propan-2-yl)-4-(6-ethoxypyrazin-2-yl)-2-methyl benzamide] |
| – | ++ (>30-60 fold (++)) | – | CC(C)(NC(=O)c1ccc(-c2cncc(Cl)n2)cn1)c1csc(NS(=O)(=O)C2CC2)n1 [R25, 5-(6-chloropyrazin-2-yl)-N-(2-(2-(cyclopropanesulfonamido)thiazol-4-yl)propan-2-yl)picolinamide] |
